Patent publication US20220280513A1, “ENHANCING THE ANTIVIRAL EFFICACY OF RNA VIRUS INHIBITION BY COMBINATION WITH MODULATORS OF PYRIMIDINE METABOLISM” (The Board of Trustees of the Leland Stanford Junior …, priority 2019, published 2022)

Target: T1, recombinant human UCK2 (Homo sapiens, UniProt Q9BZX2)
T1 construct: 6xHis (C); made in house; host or cells: E. coli BL21(DE3)
T1 sequence (Q9BZX2 1-261): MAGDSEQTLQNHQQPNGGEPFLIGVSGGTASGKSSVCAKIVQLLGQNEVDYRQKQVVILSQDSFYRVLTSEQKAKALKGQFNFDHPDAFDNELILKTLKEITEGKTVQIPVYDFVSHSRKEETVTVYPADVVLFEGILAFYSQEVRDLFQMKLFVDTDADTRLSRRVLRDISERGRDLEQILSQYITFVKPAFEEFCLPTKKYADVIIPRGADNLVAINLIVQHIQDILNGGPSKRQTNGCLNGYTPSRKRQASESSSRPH
Assay: In vitro enzyme activity assay with recombinant human UCK2 (PK/LDH-coupled, UV 340 nm)
Assay type: biochemical
Excerpt: In order to guide our SAR studies, we developed an enzymatic assay to evaluate the inhibitory effect of each CPU analog against recombinant human UCK2, which was expressed and purified in E. coli. A continuous assay system was optimized by coupling UCK2 activity to the pyruvate kinase (PK) reaction, which in turn was coupled to lactate dehydrogenase (LDH). Overall reaction progress was continuously monitored by detecting the UV absorption change at 340 nm, which was correlated with the ATP consumption by UCK2. The effect of 250 μM of each CPU analog on UCK2 activity was evaluated in the presence of 50 μM uridine. […] We then individually measured the steady state kinetic parameters of UCK2 using uridine, CPU and 5-F-CPU as substrates. Their KM values were 86, 25, and 41 μM, and their kcat/KM values were 2.6×10^5, 1.5×10^5, and 7.3×10^4 s^−1 M^−1 (FIG. 5B).
Cloning, expression and purification of recombinant human UCK2 and CMPK1: Uridine cytidine kinase 2 (UCK2) was cloned into the pET-21a(+) vector using Ndel and Notl as restriction sites. […] The resulting plasmid was transformed into E. coli BL21(DE3) cells by electroporation, recovered in SOC at 37° C. for 1 h and plated onto LB agar plates with kanamycin overnight at 37° C. A single, isolated colony was inoculated into 30 mL LB supplemented with 50 μg/mL kanamycin and grown at 37° C. with shaking for 15 h. The next day, these cells were used to inoculate 1 L autoclaved LB with 50 μg/mL kanamycin. The flask was shaken at 37° C. When an optical density (OD600) of 0.7 was reached, protein expression was induced with 0.5 mM isopropyl β-D-1-thiogalactopyranoside (IPTG). The temperature was changed to 18° C. and flasks were shaken for an additional 15 h. The cell pellets were collected by spinning the media at 5000 rpm for 10 min. The pellets obtained were frozen by liquid nitrogen and stored in −80° C. for protein purification. Cell pellets were thawed and resuspended in lysis buffer containing Tris (40 mM, pH 7.5), NaCl (10 mM), imidazole (10 mM), DTT (1 mM). Cells were lysed by sonication and centrifuged at 25,000 g for 1 h. The supernatant was incubated with a slurry of Ni-NTA resin for 1 h at 4° C. and loaded onto a column. The nickel column wash buffer was Tris (40 mM, pH 7.5), NaCl (10 mM), DTT (1 mM) and each wash step contained increasing concentrations of imidazole (10, 50, or 250 mM). After SDS-PAGE confirmation of the protein fractions, protein was further purified using fast protein liquid chromatography (FPLC) using buffer A (50 mM Tris-HCl pH 8, 1 mM dithiothreitol (DTT), 10% glycerol) and elution buffer B (50 mM Tris-HCl pH 8, 1mM dithiothreitol (DTT), 10% glycerol with 500 mM NaCl) with changing gradient over a 20 minute from 2% to 100% Buffer B. FPLC eluents containing the protein was concentrated using Am icon centrifugal filter with 3K cut-off and the enzyme was stored in storage buffer (50 mM Tris-HCl pH 7.5, 10% glycerol). Human cytidine monophosphate kinase 1 (CMPK1) was purified as previously described (Deans et al., 2016).
In vitro enzyme activity assays with recombinant human UCK2: To continuously monitor reaction progress spectrophotometrically, ATP hydrolysis was coupled to NADH oxidation via pyruvate kinase (PK) and lactate dehydrogenase (LDH). Reactions were conducted at room temperature in 100 μL in 96-well plates (Greiner Bio-One, UV-Star, Half Area). Mixtures contained 20 mM HEPES (pH 7.2), 100 mM KCl, 2 mM MgCl2, 300 μM ATP, 0-500 μM uridine, 0-500 μM CPU analogs, 10 nM UCK2, 1 mM phosphoenolpyruvate, 500 μM NADH and 20 units/mL of PK and LDH. Progress was monitored in the linear region using a Biotek Synergy HT and kinetic and inhibition constants were determined using GraphPad Prism 7 (GraphPad Software).

`O=c1ccn([C@@H]2C=C(CO)[C@@H](O)[C@H]2O)c(=O)[nH]1` [CPU, 1-((1R,4R,5S)-4,5-dihydroxy-3-(hydroxymethyl)cyclopent-2-en-1-yl)pyrimidine-2,4(1H,3H)-dione] was tested, and the “UCK2 substrate or not (ATP consumption)” value (250 μM analog in the presence of 50 μM uridine) was “substrates of UCK2” and the “rate of UMP synthesis” value (added to assay mixture containing UCK2, uridine (50 μM) and ATP) was “dose-dependent decrease”.
